Assay [1] can be described thus: Growth inhibition of cisplatin-resistant human A2780cis cells after 7 days by crystal violet staining based clonogenic assay. As to conditions: A2780cisR, 168 h. It counts as functional.
For assay [2], the system named is A2780cisR. Briefly: Induction of apoptosis in cisplatin-resistant human A2780cis cells assessed as shrunken and fragmented nuclei with condensed chromatin at 20 uM after 24 hrs by TO-PRO-3 iodide staining based immunofluorescent microscopy. It counts as functional, cell-based.
Assay [3] concerns A2780cisR. Kind of assay: Induction of apoptosis in cisplatin-resistant human A2780cis cells assessed as PARP cleavage at 20 uM after 24 hrs by western blot analysis. It counts as functional, cell-based. (Immunoblotting shows a protein as a band on a membrane.)
Assay [4] concerns A2780cisR. Briefly: Induction of apoptosis in cisplatin-resistant human A2780cis cells assessed as increase in cleaved active caspase-7 level at 20 uM after 24 hrs by immunofluorescent microscopy. It counts as functional, cell-based.
Assay [5] relates to A2780cisR. Kind of assay: Induction of apoptosis in cisplatin-resistant human A2780cis cells assessed as stimulation of caspase 7 cleavage at 20 uM after 24 hrs by western blot analysis. Format: functional, cell-based.
The nature of assay [6]: Cell cycle arrest in cisplatin-resistant human A2780cis cells assessed as accumulation at G2/M phase at 20 uM after 24 hrs by propidium iodide staining based flow cytometry (reference value: 29.47%). It counts as functional. As to conditions: A2780cisR. Background: A flow cytometer gives signals particle by particle.
Assay [7] in a line: Cell cycle arrest in cisplatin-resistant human A2780cis cells assessed as accumulation at S phase at 20 uM after 24 hrs by propidium iodide staining based flow cytometry (reference value: 17.24%). It counts as functional. The settings on record: A2780cisR.
Assay [8] in a line: Cell cycle arrest in cisplatin-resistant human A2780cis cells assessed as accumulation at G1 phase at 20 uM after 24 hrs by propidium iodide staining based flow cytometry (reference value: 45.33%). Format: functional. As to conditions: A2780cisR.
Assay [9] can be described thus: Cell cycle arrest in cisplatin-resistant human A2780cis cells assessed as accumulation at sub-G1 phase at 20 uM after 24 hrs by propidium iodide staining based flow cytometry (reference value: 7.76%). Format: functional. The settings on record: A2780cisR.
Assay [10] relates to A2780cisR. Kind of assay: Antiproliferative activity against cisplatin-resistant human A2780cis cells after 24 to 48 hrs by cell counting kit-8 analysis. Format: functional, cell-based. In general terms: Tetrazolium assays rely on reduction of a dye to a coloured formazan, in cell work by metabolically active cells.
The test system of assay [11] is A2780cisR. Kind of assay: Antiproliferative activity against cisplatin-resistant human A2780cis cells at 1 to 20 uM by cell counting kit-8 analysis. It counts as functional, cell-based. As to conditions: TDE = time-dependent effect.
Assay [12] deals with T1, Aurora kinase A (Homo sapiens, UniProt O14965).
T1 sequence (O14965 whole entry): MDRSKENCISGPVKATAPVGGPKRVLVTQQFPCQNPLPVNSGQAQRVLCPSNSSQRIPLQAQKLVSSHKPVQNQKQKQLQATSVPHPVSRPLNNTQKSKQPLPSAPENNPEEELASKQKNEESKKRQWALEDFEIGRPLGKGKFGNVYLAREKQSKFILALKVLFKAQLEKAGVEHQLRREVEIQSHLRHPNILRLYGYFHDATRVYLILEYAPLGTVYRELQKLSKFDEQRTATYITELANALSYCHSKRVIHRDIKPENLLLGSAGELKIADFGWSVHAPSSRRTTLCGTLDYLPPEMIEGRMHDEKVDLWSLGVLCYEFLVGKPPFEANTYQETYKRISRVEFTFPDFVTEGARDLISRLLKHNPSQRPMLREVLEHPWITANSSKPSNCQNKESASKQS
Kind of assay: Inhibition of human aurora A kinase using LRRASLG as substrate by scintillation counting in presence of [gamma-33P]ATP.

The source made the active and inactive calls. The rule behind the calls is not given here. Bounds are passed on as bounds.

As to `COc1ccc(O)c(C(=O)/C=C/c2cc(OC)c(OC)cc2OC)c1`, the GI50 in assay [1] (read-out: GI50) is more than 20 µM; in assay [1] (read-out: pGI50 (converted)), 20 µM.
For `COc1cc(OC)c(OC)cc1/C=C/C(=O)c1c(O)cccc1OC`, in that order: 19.2 µM and 19.1 µM.
For `COc1cccc(/C=C/C(=O)c2cc(OC)ccc2O)c1`, in that order: 10.1 µM and 10.3 µM.
In the same order, the values of `COc1ccc(/C=C/C(=O)c2ccccc2O)cc1` are 15.9 µM and 15.9 µM.
On to `COc1ccc(/C=C/C(=O)c2cc(OC)ccc2O)c(OC)c1`, for which the values for the GI50 in [1] (read-out: GI50) and in [1] (read-out: pGI50 (converted)) were 19.8 µM and 20 µM, respectively.
For `O=C(/C=C/c1ccccc1)c1ccccc1O` [2'-HYDROXYCHALCONE], in that order: 13.5 µM and 13.5 µM.
`COc1cccc(/C=C/C(=O)c2c(O)cccc2OC)c1OC`: the values for the GI50 in assay [1] (read-out: GI50) and in [1] (read-out: pGI50 (converted)) were 9.67 µM and 9.8 µM, respectively.
In the same order, the values of `COc1ccccc1/C=C/C(=O)c1ccccc1O` are 11.7 µM and 11.8 µM.
As for `COc1cccc(/C=C/C(=O)c2ccccc2O)c1OC`, the values for the GI50 in assay [1] (read-out: GI50) and in assay [1] (read-out: pGI50 (converted)) were 14.4 µM and 14.5 µM, respectively.
For `COc1cc(/C=C/C(=O)c2cc(OC)ccc2O)cc(OC)c1`, in that order: 11.3 µM and 11.2 µM.
As to `COc1ccc(O)c(C(=O)/C=C/c2cccc(OC)c2OC)c1`, the GI50 in assay [1] (read-out: GI50) and in [1] (read-out: pGI50 (converted)) was 17 µM throughout.
Regarding `COc1ccc2c(c1)C=C(C=O)CO2`, the GI50 is more than 20 µM in assay [1] (read-out: GI50) and 20 µM in [1] (read-out: pGI50 (converted)).
Turning to `COc1ccc(/C=C/C(=O)c2ccccc2O)c(OC)c1`, the values for the GI50 in assay [1] (read-out: GI50) and in [1] (read-out: pGI50 (converted)) were 15 µM and 14.8 µM, respectively.
For `COc1ccc(/C=C/C(=O)c2c(O)cccc2OC)cc1`, in that order: 15.4 µM and 15.5 µM.
For the molecule `COc1ccc(/C=C/C(=O)c2ccccc2O)c(OC)c1OC`, the values for the GI50 in assay [1] (read-out: GI50) and in [1] (read-out: pGI50 (converted)) were 14.3 µM and 14.5 µM, respectively.
Turning to `COc1ccccc1/C=C/C(=O)c1c(O)cccc1OC`, the figures for the GI50 in assay [1] (read-out: GI50) and in assay [1] (read-out: pGI50 (converted)) were 9.55 µM and 9.57 µM, respectively.
In the same order, the values of `COc1ccc(/C=C/C(=O)c2c(O)cccc2OC)c(OC)c1OC` are 18.4 µM and 18.2 µM.
Turning to `COc1ccc2c(c1)OCC(C=O)=C2`, the values for the GI50 in assay [1] (read-out: GI50) and in assay [1] (read-out: pGI50 (converted)) were more than 20 µM and 20 µM, respectively.
For the molecule `COc1ccc2c(c1)OCC(C(C)=O)=C2`, the GI50 was more than 20 µM in [1] (read-out: GI50) and 20 µM in assay [1] (read-out: pGI50 (converted)).
With `COc1ccc2c(c1)C=C(C(C)=O)CO2`, the GI50 was more than 20 µM in assay [1] (read-out: GI50) and 20 µM in [1] (read-out: pGI50 (converted)).
Regarding `COc1cc(/C=C/C(=O)c2ccccc2O)cc(OC)c1`, the GI50 in assay [1] (read-out: GI50) was 13.7 µM; in [1] (read-out: pGI50 (converted)) it was 13.8 µM.
For `COc1cccc(/C=C/C(=O)c2c(O)cccc2OC)c1`, in that order: 9.64 µM and 9.57 µM.
For `COc1cc(/C=C/C(=O)c2c(O)cccc2OC)cc(OC)c1`, in that order: 11.4 µM and 11.5 µM.
On to `COc1cc(OC)c(/C=C/C(=O)c2cc(OC)ccc2O)c(OC)c1`, for which the outcome in assay [2], in assay [3], in [4] and in [5] was Active. Moreover, the Activity in [6] is 68.3%; in [7] it was 4.09%; in assay [8], 3.53%; in [9] it was 16.5%; in assay [10], “Dose-dependent effect”; in assay [11] it was “tde”. The GI50 was 3.95 µM in assay [1] (read-out: GI50) and 3.99 µM in assay [1] (read-out: pGI50 (converted)).
For orientation: IC50 means the concentration at which inhibition is half-maximal. In the case of `COc1cc(OC)c(/C=C/C(=O)c2c(O)cccc2OC)c(OC)c1`, the IC50 in [12] came out at 66.4 µM. For the same molecule, the result in assay [3] and in assay [5] was Active. Moreover, the Activity in [6] is 71%; in assay [7], 4.33%; in assay [8], 3.36%; in assay [9], 17.1%; in assay [10], “Dose-dependent effect”; in assay [11], “tde”. Also, the results for the GI50 in assay [1] (read-out: GI50) and in assay [1] (read-out: pGI50 (converted)) were 3.87 µM and 3.9 µM, respectively.
As to `COc1ccc(/C=C/C(=O)c2c(O)cccc2OC)c(OC)c1`, the GI50 in assay [1] (read-out: GI50) was 9.55 µM; in assay [1] (read-out: pGI50 (converted)), 9.57 µM.

The record behind these values is ChEMBL document CHEMBL3124892, “Polyphenols bearing cinnamaldehyde scaffold showing cell growth inhibitory effects on the cisplatin-resistant A2780/Cis ovarian cancer cells” (Bioorg Med Chem, 2014).
